Measurements from patent US20130225611A1, “Compositions and Methods for Reducing Cancer Cell Proliferation and Modulating Importin-Beta Function” (THE REGENTS OF THE UNIVERSITY OF CALIFORNIA, priority 2011, published 2013).

What was measured:
[1] = target: T1, CFP-Ran and YFP-importin-β (Homo sapiens, UniProt Q14974); experiment: pull-down of CFP-Ran with S-tagged YFP-importin-β; type: binding; conditions: importazole 200 μM
T1 construct: made in house; host or cells: BL21 cells (E. coli)
Experimental: For pulldown experiments to detect interaction between CFP-Ran and YFP-importin-β, all reactions were performed in buffer consisting of PBS+2 mM MgCl2, 5% glycerol, 0.01% NP-40, and 1.0 mM DTT. Reaction buffer was combined with the following components in this order: CFP-Ran, RCC1, BSA, GDP or GTP, importazole or 100% DMSO, and YFP-importin-β, yielding the following final concentrations: CFP-Ran: 2.5 nM, RCC1: 20 nM, BSA: 0.1 mg/ml, GDP or GTP: 200 μM, importazole: 200 μM, […]: 5.0 nM. Reactions were incubated for 10 min at room temperature, […] of S-protein agarose was added, and then incubated for an additional 30 min on a rotator before pelleting the agarose at 3,000 rpm for 1 min. The supernatant was removed followed by three washes with […] reaction buffer. The S-protein pellet was resuspended in 15 μl of sodium dodecyl sulfate-polyacrylamide gel electrophoresis (SDS PAGE) sample buffer and boiled briefly. After spinning down the S-protein pellet, 10 μl of the sample was analyzed by SDS PAGE.

[2] = target: T2, RanGTP/importin-β interaction (Homo sapiens, UniProt Q14974); experiment: RanGTP protection assay (RanGAP-stimulated hydrolysis); type: biochemical; conditions: 50 μM importazole
T2 construct: made in house; host or cells: E. coli: BL21 (importin-β), SG13 (Ran)
Experimental: For RanGTP protection assays, all steps were performed in buffer containing 50 mM HEPES pH 7.6 with 2.5 mM MgCl2. Loading the Ran with GTP: 40 nM Biotin labeled RCC1 was bound to streptavidin agarose resin for 30 min rotating at 4° C. The Biotin labeled RCC1 was a gift of D. Halpin. The beads were washed with fresh buffer to remove any free RCC1, and 16 μM nucleotide free Ran and 51 μM GTPγP^32 were added and Ran was allowed to load for 30 min at room temperature. The beads were then removed using a spin column, and the remaining supernatant was filtered through a Sephadex G-50 column to remove free GTPγP^32. The loaded Ran was then diluted to 1.6 μM for further use. Performing the assay: All reactions were performed in a final volume of 200 μL at and in buffer containing 50 mM HEPES pH 7.6 with 2.5 mM MgCl2. Importin-β was pre-incubated with either 0.5% DMSO or 50 μM importazole in 0.5% DMSO and 100 nM RanGTPγP^32 at room temperature. 1 μM RanGAP was added to start each reaction, and the reaction was allowed to proceed for 5 min before the reaction was stopped using 1 ml of a solution containing 7% charcoal, 10% ethanol, 0.1 M HCl, and 10 mM KH2PO4. The resulting solution was spun at 10,000 RPM for 2 min in a tabletop centrifuge to pellet the charcoal, and the resulting supernatant was removed and counted for three min per sample in a liquid scintillation counter.

[3] = tested on: microtubule asters; experiment: DMSO-induced aster assembly in Xenopus egg extracts; design: species or system Xenopus laevis; conditions: 5% DMSO
Experimental: Xenopus laevis egg extracts were prepared as described by Hannak et al. (2006) Nat. Protoc. 1:2305-2314. For in vitro spindle assembly, Xenopus laevis sperm DNA was added to egg extracts supplemented with rhodamine-labeled tubulin. Asters were formed by addition of 5% DMSO. DNA was stained with Hoechst dye. The formation of microtubule-based structures was assessed using epifluorescence microscopy after a 30-minute room temperature incubation. In vitro microtubule polymerization and pelleting assays were performed by incubating 25 μM bovine tubulin, 1 mM GTP, and 5% DMSO in BRB80 buffer (80 mM PIPES, 1 mM MgCl2, 1 mM EGTA, pH 6.8) at 37° C. for 30 minutes. Polymerized microtubules were pelleted through a sucrose cushion, resuspended, and analyzed by SDS PAGE.

[4] = target: T3, CRM1 (Homo sapiens, UniProt O14980); experiment: fluorescent thermal shift assay (Sypro Orange), CRM1; type: binding; conditions: 2 μM protein, 50 μM importazole
T3 construct: made in house; host or cells: SG13 cells (E. coli)
Experimental: Experiments were performed using Applied Biosystems StepOnePlus™ Real-Time polymerase chain reaction (RT-PCR) System. Protein stocks were diluted in PBS and added 70% v/v to a Microamp® Fast 96-well Reaction Plate and maintained on ice. Compounds (importazole and control compound 3016) were then added at 30% v/v in 3% DMSO. Freshly prepared 100× water based-dilution of Sypro® Orange Protein Gel Stain was then added at 1% v/v to reach a final reaction volume of 20 μl. Samples were mixed by gentle pipetting. After sealing the plates with Microamp™ Optical Adhesive Film, the plate was subjected to a heating cycle composed of a 10 sec prewarming step at 25° C. and a gradient between 25° C. and 95° C. with a 0.3° C. ramp. Data was analyzed using the StepOnePlus™ Software v2.1.

T3 sequence (O14980 whole entry, species assumed): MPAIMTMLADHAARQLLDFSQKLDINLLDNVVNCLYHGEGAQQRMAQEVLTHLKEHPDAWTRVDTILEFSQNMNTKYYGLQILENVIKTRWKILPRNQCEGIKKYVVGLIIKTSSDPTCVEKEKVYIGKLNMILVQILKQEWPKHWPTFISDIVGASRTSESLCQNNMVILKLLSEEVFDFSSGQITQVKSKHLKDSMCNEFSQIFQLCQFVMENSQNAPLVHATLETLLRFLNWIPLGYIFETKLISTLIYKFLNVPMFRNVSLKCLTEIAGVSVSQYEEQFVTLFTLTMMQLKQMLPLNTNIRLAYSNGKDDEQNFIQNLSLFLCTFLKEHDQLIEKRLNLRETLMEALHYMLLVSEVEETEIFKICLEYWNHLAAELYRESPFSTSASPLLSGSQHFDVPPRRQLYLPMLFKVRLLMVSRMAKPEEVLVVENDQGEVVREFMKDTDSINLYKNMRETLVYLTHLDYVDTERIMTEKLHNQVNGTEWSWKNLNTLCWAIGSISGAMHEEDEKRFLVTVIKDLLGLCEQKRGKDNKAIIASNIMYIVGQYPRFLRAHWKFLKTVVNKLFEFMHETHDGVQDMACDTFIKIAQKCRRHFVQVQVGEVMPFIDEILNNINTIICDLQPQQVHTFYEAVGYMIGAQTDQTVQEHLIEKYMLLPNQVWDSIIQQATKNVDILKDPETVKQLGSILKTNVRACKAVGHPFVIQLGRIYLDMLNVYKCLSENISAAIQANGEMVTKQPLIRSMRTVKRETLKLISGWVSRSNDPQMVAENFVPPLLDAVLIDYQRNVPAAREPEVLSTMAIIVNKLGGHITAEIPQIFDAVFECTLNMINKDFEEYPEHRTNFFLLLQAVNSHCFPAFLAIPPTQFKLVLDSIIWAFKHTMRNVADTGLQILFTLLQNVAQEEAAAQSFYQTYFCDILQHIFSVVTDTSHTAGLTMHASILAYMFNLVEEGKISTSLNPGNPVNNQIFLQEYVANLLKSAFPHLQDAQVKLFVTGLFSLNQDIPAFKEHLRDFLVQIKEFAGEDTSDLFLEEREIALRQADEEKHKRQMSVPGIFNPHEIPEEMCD

Compound: CC(Nc1nc(N2CCCC2)nc2ccccc12)c1ccccc1 (stereo not shown) [importazole, (1-phenyl-ethyl)-(2-pyrrolidin-1-yl-quinazolin-4-yl)-amine]
- effect on binding of CFP-RanGTP and YFP-importin-β in pull-down assays [1]: did not obviously affect the binding of the two proteins
- effect on ability of importin-β to protect RanGTP from RanGAP-stimulated hydrolysis [2]: do not indicate that importazole disrupts the RanGTP/importin-β interaction
- formation of microtubule asters induced by DMSO in the extract [3]: did not impair the formation of microtubule asters
- effect on melting curve of CRM1 [4]: did not significantly affect the melting curves
